Laboratory results published in the NIST ThermoML archive (doi:10.1021/je020189p).
Values joined by “and” are separate entries in the source; they are usually repeats but may differ in a detail not shown here. Equal values may be shown once.

Conditions: Liquid

[Cl-].[Cl-].[Cl-].[Gd+3] [gadolinium(III) chloride]
Conditions | vapor or sublimation pressure
930 K | 3.31e-05 kPa
952 K | 6.76e-05 kPa
957 K | 8.32e-05 kPa
958 K | 6.31e-05 kPa
965 K | 7.76e-05 kPa
970 K | 0.000129 kPa
973 K | 9.77e-05 kPa
983 K | 0.000141 kPa and 0.000178 kPa
994 K | 0.000195 kPa
996 K | 0.000224 kPa
1002 K | 0.000324 kPa
1004 K | 0.000251 kPa
1011 K | 0.000331 kPa
1015 K | 0.000355 kPa
1022 K | 0.000562 kPa
1023 K | 0.000479 kPa
1024 K | 0.00049 kPa
1042 K | 0.000794 kPa
1044 K | 0.001 kPa
1046 K | 0.001 kPa
1052 K | 0.00102 kPa
1054 K | 0.00141 kPa
1061 K | 0.00135 kPa
1062 K | 0.00138 kPa
1071 K | 0.00174 kPa
1076 K | 0.00219 kPa
1082 K | 0.00234 kPa
1086 K | 0.00269 kPa
1090 K | 0.00275 kPa
1091 K | 0.00339 kPa
1093 K | 0.00302 kPa
1099 K | 0.00339 kPa
1103 K | 0.00437 kPa
1107 K | 0.00417 kPa
1113 K | 0.00575 kPa
1116 K | 0.00513 kPa
1117 K | 0.00603 kPa
1120 K | 0.00589 kPa and 0.00603 kPa
1126 K | 0.00759 kPa and 0.00661 kPa
1134 K | 0.00871 kPa
1135 K | 0.00794 kPa
1138 K | 0.00977 kPa
1144 K | 0.01 kPa
1147 K | 0.0129 kPa
1151 K | 0.0126 kPa
1154 K | 0.0132 kPa
1156 K | 0.0158 kPa
1165 K | 0.0182 kPa
1170 K | 0.0219 kPa
1177 K | 0.024 kPa
1187 K | 0.0324 kPa
1190 K | 0.0316 kPa
1203 K | 0.0407 kPa
1213 K | 0.0501 kPa

[Cl][Tb]([Cl])[Cl] [terbium trichloride]
Conditions | vapor or sublimation pressure
921 K | 6.76e-05 kPa
931 K | 0.0001 kPa
937 K | 0.000135 kPa
942 K | 0.000209 kPa
943 K | 0.00017 kPa
946 K | 0.000166 kPa
950 K | 0.000204 kPa
953 K | 0.000219 kPa
957 K | 0.000331 kPa and 0.000245 kPa
961 K | 0.000288 kPa
965 K | 0.000302 kPa
967 K | 0.000331 kPa
971 K | 0.000501 kPa and 0.000372 kPa
975 K | 0.000407 kPa
976 K | 0.000331 kPa
979 K | 0.000447 kPa and 0.000331 kPa
980 K | 0.000501 kPa
984 K | 0.000537 kPa
988 K | 0.000832 kPa
990 K | 0.000661 kPa
992 K | 0.000501 kPa
994 K | 0.000708 kPa and 0.000741 kPa
995 K | 0.000501 kPa
998 K | 0.000794 kPa
999 K | 0.00107 kPa and 0.000912 kPa
1006 K | 0.00105 kPa and 0.000741 kPa
1009 K | 0.000741 kPa
1010 K | 0.00123 kPa and 0.00115 kPa
1011 K | 0.00148 kPa
1017 K | 0.00132 kPa [middle of 4 runs]
1020 K | 0.00158 kPa
1021 K | 0.00191 kPa
1024 K | 0.00166 kPa
1026 K | 0.00178 kPa
1027 K | 0.00123 kPa
1028 K | 0.00123 kPa
1029 K | 0.00209 kPa
1033 K | 0.00257 kPa
1034 K | 0.00214 kPa
1035 K | 0.00148 kPa
1037 K | 0.00251 kPa and 0.00158 kPa
1038 K | 0.00257 kPa
1043 K | 0.00263 kPa and 0.00191 kPa
1045 K | 0.00355 kPa
1047 K | 0.00331 kPa
1048 K | 0.00209 kPa
1053 K | 0.00447 kPa
1054 K | 0.00355 kPa and 0.00245 kPa
1056 K | 0.00372 kPa
1057 K | 0.00417 kPa
1058 K | 0.00263 kPa
1059 K | 0.00389 kPa
1064 K | 0.00575 kPa
1065 K | 0.00513 kPa
1067 K | 0.00372 kPa
1071 K | 0.00676 kPa and 0.00372 kPa
1072 K | 0.00525 kPa
1073 K | 0.00525 kPa
1075 K | 0.00617 kPa
1081 K | 0.00851 kPa
1082 K | 0.00537 kPa
1091 K | 0.00851 kPa
1092 K | 0.0112 kPa
1093 K | 0.00708 kPa
1102 K | 0.0141 kPa
1105 K | 0.00912 kPa
1117 K | 0.0117 kPa
